Results taken from US20180207105A1, “METHOD FOR MANUFACTURING A THERAPEUTIC AGENT FOR USE IN THE TREATMENT OF INFECTIONS” (AGA NANOTECH LTD, priority 2014, published 2018).

Test: pH of solutions of the active ingredients alone dissolved in ultrapure water
Assay type: physicochemical
[1] = 17.5 mg/ml (1.75 wt %) in ultrapure water
[2] = 35 mg/ml (3.5 wt %) in ultrapure water
[3] = 70 mg/ml (7 wt %) in ultrapure water
[4] = 140 mg/ml (14 wt %) in ultrapure water
[5] = 280 mg/ml (28 wt %) in ultrapure water

SMILES | pH of solution [1] | pH of solution [2] | pH of solution [3] | pH of solution [4] | pH of solution [5]
NC(N)=O.OO [Urea Hydrogen Peroxide, urea hydrogen peroxide] | 7.90 | 6.92 | 6.9 | 6.38 | 4.97
O=C([O-])[O-].O=C([O-])[O-].OO.OO.OO.[Na+].[Na+].[Na+].[Na+] [Sodium Percarbonate, Sodium percarbonate] | 10.83 | 10.89 | 10.87 | 10.83 | 10.74
